Assay results as given in patent publication US6458802B1, “Antidepressant azaheterocyclymethyl derivatives of 2,3-dihydro-1,4-dioxino [2,3-f]quinoline” (Wyeth, priority 2001, dated 2002).
Where a name gives a salt, the structure may show the parent alone. Read-outs that look alike come from different tables or passages of the source.

What was measured:
[1] = biological target: T1, cloned human 5HT1A receptors (Homo sapiens, UniProt P08908); test: 35S-GTPγS binding assay, antagonist activity at 5HT1A receptors; type: biochemical; conditions: for IC50: 35S-GTPγS binding, reversal of the effects of the standard agonist 8-OH-DPAT, membranes with cloned human 5HT1A receptors, read-out: 5HT1A Function IC50; for Emax / 5HT1A Function (Imax): maximum inhibitory effect in 35S-GTPγS binding versus 8-OH-DPAT; for Emax: read-out: 5HT1A Function (Imax)
T1 construct: expressed in transfected cells
T1 sequence (P08908 1-422): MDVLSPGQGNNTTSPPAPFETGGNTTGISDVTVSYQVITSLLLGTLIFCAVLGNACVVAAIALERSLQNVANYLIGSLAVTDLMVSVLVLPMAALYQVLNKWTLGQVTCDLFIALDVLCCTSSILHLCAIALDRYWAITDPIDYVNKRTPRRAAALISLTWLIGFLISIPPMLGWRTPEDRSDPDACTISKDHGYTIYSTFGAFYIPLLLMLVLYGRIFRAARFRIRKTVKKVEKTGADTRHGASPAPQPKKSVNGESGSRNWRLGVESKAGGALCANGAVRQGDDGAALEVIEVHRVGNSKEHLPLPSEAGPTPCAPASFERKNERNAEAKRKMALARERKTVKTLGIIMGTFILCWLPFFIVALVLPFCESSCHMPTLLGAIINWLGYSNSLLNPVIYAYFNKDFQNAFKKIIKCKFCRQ
Description: Antagonist activity at 5HT1A receptors was established by using a ^35S-GTPγS binding assay similar to that used by Lazareno and Birdsall (Br. J. Pharmacol. 109: 1120, 1993), in which the test compound's ability to affect the binding of 35S-GTPγS to membranes containing cloned human 5HT1A receptors was determined. Agonists produce an increase in binding whereas antagonists produce no increase but rather reverse the effects of the standard agonist 8-OH-DPAT. The test compound's maximum inhibitory effect is represented as the 1max, while its potency is defined by the IC50.

serotonin transporter = biological target: T2, serotonin transporter (Rattus norvegicus, UniProt P31652); test: 3H-paroxetine displacement, affinity for the serotonin transporter; type: binding
T2 construct: displace ^3H-paroxetine from male rat frontal cortical membranes; from tissue; host or cells: male rat frontal cortex membranes

human 5HT1A receptors = biological target: T3, human 5HT1A receptors (Homo sapiens, UniProt P08908); test: [3H] 8-OH-DPAT displacement from the 5HT1A serotonin receptor (transfected CHO cells); type: binding
T3 construct: expressed in transfected cells; host or cells: CHO cells
T3 sequence (P08908 1-422): T1 sequence (P08908 1-422)
Excerpt: High affinity for the serotonin 5HT1A receptor was established by testing the claimed compound's ability to displace [^3H] 8-OH-DPAT (dipropylamino-tetralin) from the 5HT1A serotonin receptor following a modification of the procedure of Hall et al., J. Neurochem. 44, 1685 (1985) which utilizes CHO cells stably transfected with human 5HT1A receptors.

[2] = displacement of [3H] 8-OH-DPAT, CHO cells stably transfected with human 5HT1A receptors, read-out: 5HT1A Receptor Affinity KI

T2 sequence (P31652 whole entry): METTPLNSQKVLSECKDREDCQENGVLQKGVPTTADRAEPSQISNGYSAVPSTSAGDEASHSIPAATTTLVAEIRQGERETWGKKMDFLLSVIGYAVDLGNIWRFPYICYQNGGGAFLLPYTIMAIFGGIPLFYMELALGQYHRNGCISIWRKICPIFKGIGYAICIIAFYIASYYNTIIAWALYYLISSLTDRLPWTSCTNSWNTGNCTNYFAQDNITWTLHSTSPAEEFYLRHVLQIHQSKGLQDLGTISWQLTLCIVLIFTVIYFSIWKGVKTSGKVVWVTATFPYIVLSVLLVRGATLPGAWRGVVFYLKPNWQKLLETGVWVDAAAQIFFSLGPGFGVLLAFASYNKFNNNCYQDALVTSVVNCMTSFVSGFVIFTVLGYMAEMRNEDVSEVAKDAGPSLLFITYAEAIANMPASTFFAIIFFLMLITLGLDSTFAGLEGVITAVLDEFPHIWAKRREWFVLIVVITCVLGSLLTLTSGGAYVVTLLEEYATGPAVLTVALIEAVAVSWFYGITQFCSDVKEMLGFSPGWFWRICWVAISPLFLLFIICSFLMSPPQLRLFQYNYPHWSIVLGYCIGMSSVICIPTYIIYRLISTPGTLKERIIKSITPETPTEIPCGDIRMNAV

| Compound | melting point [°C] | IC50 [1] [µM] | Emax [1] [%] | Ki (serotonin transporter) [µM] | Ki (human 5HT1A receptors) [µM] | further results |
| --- | --- | --- | --- | --- | --- | --- |
| C1=C(c2c[nH]c3ccccc23)CCN(C[C@H]2COc3ccc4ncccc4c3O2)C1 (hydrate or solvate) [Example 4, 2-[1,4-(1H-indol-3-yl)-3,6-dihydro-2H-pyridin-1-ylmethyl]-2,3-dihydro[1,4]dioxino[2,3-f]quinoline] | 217 | – | – | – | – | – |
| COc1ccc2[nH]cc(C3=CCN(C[C@H]4COc5ccc6ncccc6c5O4)CC3)c2c1 (as salt: fumarate) [Example 1] | 170 | – | – | – | – | – |
| Fc1ccc2[nH]cc(CC3CCN(C[C@H]4COc5ccc6ncccc6c5O4)CC3)c2c1 (as salt: oxalate) [Example 3] | 184 | – | – | – | – | – |
| C1=C(c2c[nH]c3ccccc23)CCN(C[C@H]2COc3ccc4ncccc4c3O2)C1 [Example 4, 2-[1,4-(1H-indol-3-yl)-3,6-dihydro-2H-pyridin-1-ylmethyl]-2,3-dihydro[1,4]dioxino[2,3-f]quinoline] | – | 0.226 | 87 | 0.00338 | 0.00484 | – |
| Cc1ccc2c3c(ccc2n1)OCC(CN1CC=C(c2c[nH]c4cc(F)ccc24)CC1)O3 (stereo not shown) (as salt: oxalate) (hydrate or solvate) [Example 10, 2-[4-(6-Fluoro-1H-indol-3-yl)-3,6-dihydro-2H-pyridin-1-ylmethyl]-8-methyl-2,3-dihydro[1,4]dioxino[2,3-f]quinoline] | 140 to 143 | – | – | – | – | – |
| Fc1ccc2[nH]cc(C3=CCN(C[C@H]4COc5ccc6ncccc6c5O4)CC3)c2c1 [Example 2] | – | 0.243 | 100 | 0.00282 | 0.00988 | – |
| N#Cc1ccc2[nH]cc(C3=CCN(CC4COc5ccc6ncccc6c5O4)CC3)c2c1 (stereo not shown) (as salt: fumarate) [Example 5, 3-[1-(2,3-Dihydro[1,4]dioxino[2,3-f]quinolin-2-ylmethyl)-1,2,3,6-tetrahydropyridin-4-yl]-1H-indole-5-carbonitrile] | 159 to 161 | – | – | – | – | – |
| Nc1ccc2c3c(ccc2n1)OC[C@H](CN1CC=C(c2c[nH]c4ccc(F)cc24)CC1)O3 [Example 18, 2-[4-(5-Fluoro-1H-indol-3-yl)-3,6-dihydro-2H-pyridin-1-ylmethyl]-2,3-dihydro[1,4]dioxino[2,3-f]guinolin-8-ylamine] | – | 0.0849 | 100 | 0.00066 | 0.0109 | – |
| COc1ccc2[nH]cc(C3=CCN(C[C@H]4COc5ccc6ncccc6c5O4)CC3)c2c1 [Example 1] | – | 0.322 | 100 | 0.054 | 0.00929 | – |
| Fc1ccc2[nH]cc(C3=CCN(CC4COc5cc(F)c6ncccc6c5O4)CC3)c2c1 (stereo not shown) (as salt: fumarate) (hydrate or solvate) [Example 15, 6-Fluoro-2-[(4-(5-fluoro-1H-indol-3-yl)-3,6-dihydropyridin-1(2H)-yl)methyl]-2,3-dihydro[1,4]dioxino[2,3-f]quinoline] | 190 | – | – | – | – | – |
| COc1cc2c(c3cccnc13)O[C@@H](CN1CC=C(c3c[nH]c4ccc(F)cc34)CC1)CO2 (as salt: fumarate) [Example 17, 2-[4-(5-Fluoro-1H-indol-3-yl)-3,6-dihydro-2H-pyridin-1-ylmethyl]-6-methoxy-2,3-dihydro[1,4]dioxino[2,3-f]qiuinoline] | 217 | – | – | – | – | – |
| CCc1ccc2c3c(ccc2n1)OCC(CN1CC=C(c2c[nH]c4ccc(F)cc24)CC1)O3 (stereo not shown) [Example 14, 8-Ethyl-2-[(4-(5-fluoro-1H-indol-3-yl)-3,6-dihydropyridin-1(2H)-yl)methyl]-2,3-dihydro[1,4]dioxino[2,3-f]quinoline] | – | 0.166 | 100 | 0.014 | 0.0154 | – |
| N#Cc1ccc2[nH]cc(C3=CCN(CC4COc5ccc6ncccc6c5O4)CC3)c2c1 (stereo not shown) [Example 5, 3-[1-(2,3-Dihydro[1,4]dioxino[2,3-f]quinolin-2-ylmethyl)-1,2,3,6-tetrahydropyridin-4-yl]-1H-indole-5-carbonitrile] | – | – | – | 0.00254 | – | Ki (human 5HT1A receptors; [2]): 0.0193 µM |
| COc1cc2c(c3cccnc13)O[C@@H](CN1CC=C(c3c[nH]c4ccc(F)cc34)CC1)CO2 [Example 17, 2-[4-(5-Fluoro-1H-indol-3-yl)-3,6-dihydro-2H-pyridin-1-ylmethyl]-6-methoxy-2,3-dihydro[1,4]dioxino[2,3-f]qiuinoline] | – | 1.41 | 100 | 0.00474 | – | Ki (human 5HT1A receptors; [2]): 0.317 µM |
| Nc1ccc2c3c(ccc2n1)OC[C@H](CN1CC=C(c2c[nH]c4ccc(F)cc24)CC1)O3 (as salt: fumarate) (hydrate or solvate) [Example 18, 2-[4-(5-Fluoro-1H-indol-3-yl)-3,6-dihydro-2H-pyridin-1-ylmethyl]-2,3-dihydro[1,4]dioxino[2,3-f]guinolin-8-ylamine] | 245 | – | – | – | – | – |
| Cc1ccc2c3c(ccc2n1)OCC(CN1CCC(c2c[nH]c4ccccc24)CC1)O3 (stereo not shown) (as salt: fumarate) (hydrate or solvate) [Example 12, 2-[4-(1H-indol-3-yl)piperidin-1-ylmethyl]-8-methyl-2,3-dihydro[1,4]dioxino[2,3-f]quinoline] | 206 | – | – | – | – | – |
| Cc1ccc2c3c(ccc2n1)OCC(CN1CC=C(c2c[nH]c4ccc(F)cc24)CC1)O3 (stereo not shown) [Example 11, 2-[4-(5-Fluoro-1H-indol-3-yl)-3,6-dihydro-2H-pyridin-1-ylmethyl]-8-methyl-2,3-dihydro[1,4]dioxino[2,3-f]quinoline] | – | 0.12 | 100 | 0.00551 | 0.0132 | – |
| 2-({4-[(6-Chloro-1H-indol-3-yl)methyl]piperidin-1-yl}methyl)-8-methyl-2,3-dihydro[1,4]dioxino[2,3-f]quinoline [Example 20] | – | – | – | – | – | 5HT1A Function (Imax) [1]: (100) |
| Cc1ccc2c3c(ccc2n1)OCC(CN1CCC(c2c[nH]c4ccccc24)CC1)O3 (stereo not shown) [Example 12, 2-[4-(1H-indol-3-yl)piperidin-1-ylmethyl]-8-methyl-2,3-dihydro[1,4]dioxino[2,3-f]quinoline] | – | 0.0857 | 100 | 0.00239 | 0.00998 | – |
| Fc1ccc2[nH]cc(C3=CCN(CC4COc5cc(F)c6ncccc6c5O4)CC3)c2c1 (stereo not shown) [Example 15, 6-Fluoro-2-[(4-(5-fluoro-1H-indol-3-yl)-3,6-dihydropyridin-1(2H)-yl)methyl]-2,3-dihydro[1,4]dioxino[2,3-f]quinoline] | – | 1.03 | 100 | 0.0015 | 0.0364 | – |
| Cc1ccc2[nH]cc(C3=CCN(CC4COc5ccc6nc(C)ccc6c5O4)CC3)c2c1 (stereo not shown) [Example 22, 2-[4-(5-Methyl-1H-indol-3-yl)-3,6-dihydro-2H-pyridin-1-ylmethyl]-8-methyl-2,3-dihydro[1,4]dioxino[2,3-f]quinoline] | – | 0.503 | 100 | 0.059 | 0.0347 | – |
| Cc1ccc2c3c(ccc2n1)OCC(CN1CC=C(c2c[nH]c4cc(F)ccc24)CC1)O3 (stereo not shown) [Example 10, 2-[4-(6-Fluoro-1H-indol-3-yl)-3,6-dihydro-2H-pyridin-1-ylmethyl]-8-methyl-2,3-dihydro[1,4]dioxino[2,3-f]quinoline] | – | 0.259 | 100 | 0.008 | 0.0067 | – |
| NC(=O)c1ccc2[nH]cc(C3=CCN(C[C@H]4COc5ccc6ncccc6c5O4)CC3)c2c1 [Example 6, 3-[1-(2,3-Dihydro[1,4]dioxino[2,3-f]qiuinolin-2-ylmethyl)-1,2,3,6-tetrahydropyridin-4-yl]-1H-indole-5-carboxylic Acid Amide] | – | – | – | 0.00354 | – | Ki (human 5HT1A receptors; [2]): 0.00944 µM |
| Cn1cc(C2=CCN(C[C@H]3COc4ccc5ncccc5c4O3)CC2)c2cc(F)ccc21 [Example 7, 2-[4-(5-Fluoro-1-methyl-1H-indol-3-yl)-3,6-dihydro-2H-pyridin-1-ylmethyl]-2,3-dihydro[1,4]dioxino[2,3-f]qiuinoline] | – | 1.08 | 100 | 0.0085 | 0.0147 | – |
| Fc1ccc2[nH]cc(CC3CCN(C[C@H]4COc5ccc6ncccc6c5O4)CC3)c2c1 [Example 3] | – | 0.12 | 90 | – | – | Ki (serotonin transporter; displacement of 3H-paroxetine from male rat frontal cortical membranes, read-out: 5-HT Transporter Affinity KI): 0.0012 µM; Ki (human 5HT1A receptors; [2]): 0.0172 µM |
| 2-({4-[(7-Ethyl-1H-indol-3-yl)methyl]piperidin-1-yl}methyl)-8-methyl-2,3-dihydro[1,4]dioxino[2,3-f]quinoline [Example 19] | – | – | – | – | – | 5HT1A Function (Imax) [1]: (100) |
